Source: ChEMBL document CHEMBL5052845 (2021)

Tests used:
Assay type in all cases: ADME, Microsome
[1] = Half-life in mouse liver microsomes at 1 uM incubated for 60 mins followed by NADPH generating system addition and measured by LC-MS/MS analysis
[2] = Half-life in human liver microsomes at 1 uM incubated for 60 mins followed by NADPH generating system addition and measured by LC-MS/MS analysis
[3] = Clearance in human liver microsomes at 1 uM incubated for 60 mins followed by NADPH generating system addition and measured by LC-MS/MS analysis; settings: read-out: CLH
[4] = Clearance in mouse liver microsomes at 1 uM incubated for 60 mins followed by NADPH generating system addition and measured by LC-MS/MS analysis; settings: read-out: CLH
[5] = Metabolic stability in mouse liver microsomes at 1 uM assessed as compound remaining incubated for 60 mins followed by NADPH generating system addition and measured by LC-MS/MS analysis; settings: read-out: Stability

Row | Structure (SMILES) | half-life at 1 µM [1] | half-life at 1 µM [2] | microsomal CLint at 1 µM [3] | microsomal CLint at 1 µM [4] | remaining at 1 h, 1 µM [5]
1 | CCC[C@@H]1C[C@@H](NC(=O)c2ccc(C(F)(F)F)[nH]c2=O)c2cc(C)ccc2N1 | 1.2 h | 1.37 h | 17 µL/min/mg | 19.2 µL/min/mg | 
2 | CCC[C@H]1Oc2ccc(C)cc2[C@@H]1NC(=O)c1ccc(C(F)(F)F)[nH]c1=O | 0.56 h | 0.652 h | 35.4 µL/min/mg | 41.2 µL/min/mg | 
3 | Cc1ccc2c(c1)[C@H](O)CC[C@H]2NC(=O)c1ccc(C(F)(F)F)[nH]c1=O |  |  |  |  | 105%
4 | CCC[C@H]1C[C@@H](NC(=O)c2ccc(C(F)(F)F)[nH]c2=O)c2cc(C)ccc2N1 | 1.9 h | 1.51 h | 15.3 µL/min/mg | 12.1 µL/min/mg | 
